From PubChem BioAssay (NCI)
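All cell lines were grown in 96-well plates and treated with compound for 48 hours. Abbreviation: GI50, concentration required for 50% inhibition of growth. TGI: concentration producing complete growth inhibition.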

What was measured:
Experiment in all cases: DTP human tumour cell line panel, 48 h
[1] = test system: SNB-19 CNS
[2] = test system: HS 578T breast
[3] = test system: MDA-MB-435
[4] = test system: SW-620 colon
[5] = test system: COLO 205 colon
[6] = test system: SF-295 CNS
[7] = test system: MOLT-4 leukemia
[8] = test system: SN12C renal
[9] = test system: UO-31 renal
[10] = test system: M14 melanoma
[11] = test system: OVCAR-8 ovarian
[12] = test system: MALME-3M melanoma
[13] = test system: HOP-62 NSCLC
[14] = test system: SK-MEL-28 melanoma
[15] = test system: EKVX NSCLC
[16] = test system: NCI-H522 lung
[17] = test system: TK-10 renal
[18] = test system: CAKI-1 renal
[19] = test system: U251 CNS
[20] = test system: OVCAR-3 ovarian
[21] = test system: HCT-15 colon
[22] = test system: DU-145 prostate
[23] = test system: SF-268 CNS
[24] = test system: BT-549 breast
[25] = test system: NCI-H460 lung
[26] = test system: KM12 colon
[27] = test system: NCI-H23 lung
[28] = test system: MCF7 breast
[29] = test system: OVCAR-5 ovarian
[30] = test system: OVCAR-4 ovarian
[31] = test system: HT29 colon
[32] = test system: RPMI-8226 leukemia
[33] = test system: UACC-62 melanoma
[34] = test system: PC-3 prostate
[35] = test system: NCI/ADR-RES ovarian
[36] = test system: HCT-116 colon
[37] = test system: HCC-2998 colon
[38] = test system: SK-MEL-2 melanoma
[39] = test system: LOX IMVI melanoma
[40] = test system: T-47D breast
[41] = test system: CCRF-CEM leukemia
[42] = test system: SK-MEL-5 melanoma
[43] = test system: MDA-MB-231 breast
[44] = test system: SNB-75 CNS
[45] = test system: SF-539 CNS
[46] = test system: HL-60(TB) leukemia
[47] = test system: A498 renal
[48] = test system: A549 NSCLC
[49] = test system: 786-0 renal
[50] = test system: UACC-257 melanoma
[51] = test system: RXF 393 renal
[52] = test system: HOP-92 NSCLC
[53] = test system: SR leukemia
[54] = test system: IGROV1 ovarian
[55] = test system: K-562 leukemia
[56] = test system: ACHN renal

CO[C@H]1/C=C/[C@@](C)(O)/C=C/C(=O)O[C@H](C)[C@@H](C)CC/C=C/1C
GI50 [1]: 21.9 µM
TGI [1]: 81.8 µM
GI50 [2]: 23.9 µM
TGI [2]: > 100 µM
GI50 [3]: 23.1 µM
TGI [3]: 83.1 µM
GI50 [4]: 15.1 µM
TGI [4]: 35.7 µM
GI50 [5]: 20.6 µM
TGI [5]: 47.8 µM
GI50 [6]: 16.5 µM
TGI [6]: 39.8 µM
GI50 [7]: 21.2 µM
TGI [7]: 98.6 µM
GI50 [8]: 17.6 µM
TGI [8]: 59.2 µM
GI50 [9]: 8.38 µM
TGI [9]: 21.1 µM
GI50 [10]: 15.7 µM
TGI [10]: 43.3 µM
GI50 [11]: 26.9 µM
TGI [11]: > 100 µM
GI50 [12]: 13.1 µM
TGI [12]: 37.3 µM
GI50 [13]: 16.3 µM
TGI [13]: 59.2 µM
GI50 [14]: 16.9 µM
TGI [14]: 42.6 µM
GI50 [15]: 15.7 µM
TGI [15]: 76.8 µM
GI50 [16]: 15.2 µM
TGI [16]: 36.4 µM
GI50 [17]: 19.7 µM
TGI [17]: 88.4 µM
GI50 [18]: 21.1 µM
TGI [18]: 69.7 µM
GI50 [19]: 14.2 µM
TGI [19]: 40.6 µM
GI50 [20]: 11.3 µM
TGI [20]: 29.4 µM
GI50 [21]: 7.35 µM
TGI [21]: 22.5 µM
GI50 [22]: 22.4 µM
TGI [22]: 71.8 µM
GI50 [23]: 19.7 µM
TGI [23]: > 100 µM
GI50 [24]: 19.8 µM
TGI [24]: 63.6 µM
GI50 [25]: 17.4 µM
TGI [25]: 48.6 µM
GI50 [26]: 15.8 µM
TGI [26]: 41.2 µM
GI50 [27]: 14.8 µM
TGI [27]: 32.4 µM
GI50 [28]: 16.5 µM
TGI [28]: 56 µM
GI50 [29]: 17.7 µM
TGI [29]: 39.2 µM
GI50 [30]: 14.9 µM
TGI [30]: 76.3 µM
GI50 [31]: 19.4 µM
TGI [31]: 48.7 µM
GI50 [32]: 15.5 µM
TGI [32]: 97.3 µM
GI50 [33]: 13.8 µM
TGI [33]: 30 µM
GI50 [34]: 18.2 µM
TGI [34]: 53.7 µM
GI50 [35]: 15 µM
TGI [35]: 40.5 µM
GI50 [36]: 12.9 µM
TGI [36]: 26.2 µM
GI50 [37]: 15.6 µM
TGI [37]: 30.7 µM
GI50 [38]: 23.6 µM
TGI [38]: 63.5 µM
GI50 [39]: 11.3 µM
TGI [39]: 26 µM
GI50 [40]: 14.1 µM
TGI [40]: > 100 µM
GI50 [41]: 10.1 µM
TGI [41]: > 100 µM
GI50 [42]: 14 µM
TGI [42]: 28.4 µM
GI50 [43]: 14.5 µM
TGI [43]: 45.1 µM
GI50 [44]: 17.5 µM
TGI [44]: 40.4 µM
GI50 [45]: 15.2 µM
TGI [45]: 31.3 µM
GI50 [46]: 22.7 µM
TGI [46]: 54.5 µM
GI50 [47]: 12 µM
TGI [47]: 32 µM
GI50 [48]: 23 µM
TGI [48]: > 100 µM
GI50 [49]: 16.8 µM
TGI [49]: 34.3 µM
GI50 [50]: 26.7 µM
TGI [50]: 87.3 µM
GI50 [51]: 11 µM
TGI [51]: 24.5 µM
GI50 [52]: 7.62 µM
TGI [52]: 26.1 µM
GI50 [53]: 15 µM
TGI [53]: > 100 µM
GI50 [54]: 17.2 µM
TGI [54]: 62.3 µM
GI50 [55]: 15.2 µM
TGI [55]: > 100 µM
GI50 [56]: 18.7 µM
TGI [56]: 55.9 µM
